Test results taken from paper PMC4277420, “Assessment of [^125I]WYE-230949 as a Novel Histamine H3 Receptor Radiopharmaceutical” (PLoS ONE, 2014).

What was measured:
[1] = Partition and distribution co-efficients (logP and logD), shake-flask method; format: physicochemical
Method: The lipophilicity of [^125I]WYE-230949 was determined in octanol/water and at physiological pH using a modification of the shake-flask method. […] The radioactivity incorporated in both phases was determined using a gamma counter (Cobra Gamma Counter, Packard, Perkin Elmer Life and Analytical Sciences, Boston, MA, USA). The assay was performed in triplicate on 3 separate occasions. LogP was calculated to be log [counts in octanol/counts in water] and logD was calculated to be log [counts in octanol/counts in pH 7.4 buffer].

[2] = In vivo microSPECT imaging of brain uptake; parameters: species or system rat
Method: (§1) Animal experiments were conducted under the UK Animals (Scientific Procedures) Act 1986. This work was approved by the ethical review committee at the University of Glasgow (PPL: 60/3436) prior to the start of study. Naïve male Sprague-Dawley rats (Harlan, UK), weighing 217 to 352 g were either conscious or anaesthetised (2.5–3% isoflurane via a tracheostomy and artificial ventilation in 70/30% N2O/O2) for the duration of the experiment. Anaesthetised rats had their respiration and temperature monitored throughout. [^125I]WYE-230949 was administered via a femoral vein cannula to anaesthetised rats or via the lateral tail vein to conscious rats. The injected dose for each rat was calculated by measuring the syringe in a dose calibrator before and after [^125I]WYE-230949 administration. The radioactive and radiochemical amounts administered to individual rats ranged from 12.6 to 24.5 MBq and 0.32 to 0.70 µg/kg respectively in all in vivo studies.
MicroSPECT imaging was performed in order to image the uptake of [^125I]WYE-230949 in the brain over time. SPECT scanning was performed using a MollyQ 50 microSPECT scanner (Neurophysics Corp., Shirley, MA, U.S.A.). Rats were anaesthetised for the duration of scan (2–3% isoflurane in 70/30% N2O/O2) and physiological parameters were maintained as described previously. The scanning protocol was designed to ensure that a forebrain slice encompassing structures dense in H3 bindings sites including cortex, striatum, hippocampus and thalamus was captured; the first slice being 14.4 mm caudal to the eyes, approximately at the level of the caudate nucleus. Scanning was commenced 12 min prior to intravenous injection of [^125I]WYE-230949 via the tail vein. Ten sequential coronal slices (400 µm/slice) were collected over a total scanning distance of 4 mm with a scanning time of 12 min per repetition. […] The mean intensity of the ROI in each slice of the SPECT images was measured by plotting a z-axis profile. […] Finally these values were expressed as % of injected dose per ml of tissue and plotted against time.

[3] = Ex vivo HPLC analysis of rat plasma and brain samples (% parent compound); format: in vivo
Method: as §1
After intravenous injection of [^125I]WYE-230949 blood samples were obtained by terminal cardiac puncture from anaesthetised rats or via the lateral tail vein from conscious rats at either 30 or 120 min. Rats were then immediately killed by cervical dislocation and the brain removed. Plasma was separated from whole blood by centrifugation and the protein precipitated by combining 400 µl of plasma with 400 µl of ice-cold acetonitrile. A sample (200 µl) of the supernatant was made up to 1 ml with distilled water and injected onto the HPLC column. The brain was homogenised in 2 ml saline, protein precipitated by addition of 2 ml of ice-cold acetonitrile. Samples were then centrifuged (1300 rpm; 200×g) and the supernatant added to 1 ml acetonitrile before being centrifuged again (1300 rpm; 200×g). The acetonitrile was evaporated under a stream of argon gas and the remaining 1 ml injected onto the HPLC column. Analysis of the brain and plasma metabolite samples was performed using the analytical HPLC methodology described. The % parent compound present was calculated.

histamine H3 receptor = target: T1, histamine H3 receptor (Rattus norvegicus, UniProt Q9QYN8); test: In vitro autoradiography on rat brain sections; format: binding; details: 5 nM radioligand, non-specific with 5 µM iodophenpropit
T1 construct: Sections (20 µm) cut from a frozen rat brain were pre-incubated in Tris-HCl buffer; from tissue
Method: Sections (20 µm) cut from a frozen rat brain were pre-incubated in Tris-HCl buffer (50 mM, pH 7.4; EDTA 5 mM) for 15 min then incubated in 5 nM [^125I]WYE-230949 for 90 min at room temperature. Non-specific binding was defined in adjacent sections in the presence of 5 µM iodophenpropit dihydrobromide. Sections were washed (2×30 min in Tris buffer) and briefly (15 s) rinsed in distilled water before drying and apposition to Kodak Biomax for 24 h. These autoradiograms were generated only for visual comparison with those obtained ex vivo.

T1 sequence (Q9QYN8 whole entry): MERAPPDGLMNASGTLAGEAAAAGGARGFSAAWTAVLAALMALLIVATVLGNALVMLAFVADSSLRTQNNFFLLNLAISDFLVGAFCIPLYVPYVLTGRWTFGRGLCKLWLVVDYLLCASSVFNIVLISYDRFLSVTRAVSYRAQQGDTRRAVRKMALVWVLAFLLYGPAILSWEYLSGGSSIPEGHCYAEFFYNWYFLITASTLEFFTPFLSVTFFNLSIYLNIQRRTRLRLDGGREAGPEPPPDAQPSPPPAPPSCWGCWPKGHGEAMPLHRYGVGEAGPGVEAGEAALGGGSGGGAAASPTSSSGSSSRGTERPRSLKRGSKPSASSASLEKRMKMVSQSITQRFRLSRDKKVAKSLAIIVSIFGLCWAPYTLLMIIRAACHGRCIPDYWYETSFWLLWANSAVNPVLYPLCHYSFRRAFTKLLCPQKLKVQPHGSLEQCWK

O=C(c1ccc(Cn2cnc3cccc([125I])c32)cc1)N1CC[C@H](N2CCCC2)C1 [[^125I]WYE-230949]
logD7.4 ([1]; octanol/phosphate buffer pH 7.4, n = 3): 1.64±0.04 | logP ([1]; octanol/water, n = 3): 1.59±0.04 | maximum brain uptake (microSPECT) ([2]; first 12 min following i.v. injection, anaesthetised rats, n = 5): 0.14±0.01 % ID/ml | maximum brain uptake (SPECT), as restated in discussion ([2]; first 12 min post injection, rats): 0.14 %ID/g | half-life in rat brain ([2]; microSPECT time activity curve): 45.4 min | parent compound remaining in plasma ([3]; 30 minutes after injection): less than 38% | Percentage of parent compound detected ([3]; Brain, 30 min, anaesthetised): 27±4 (n = 3) % | Percentage of parent compound detected ([3]; Brain, 30 min, conscious): 46±2 (n = 4) % | Percentage of parent compound detected ([3]; Brain, 120 min, anaesthetised): 32±5 (n = 3) % | Percentage of parent compound detected ([3]; Brain, 120 min, conscious): 36±6 (n = 4) % | Percentage of parent compound detected ([3]; Plasma, 30 min, anaesthetised): 14±2 (n = 4) % | Percentage of parent compound detected ([3]; Plasma, 30 min, conscious): 38±9 (n = 6) % | Percentage of parent compound detected ([3]; Plasma, 120 min, anaesthetised): 3±3 (n = 4) % | Percentage of parent compound detected ([3]; Plasma, 120 min, conscious): 8±5 (n = 4) % | parent compound remaining in plasma ([3]; after 120 min): less than 8% | regional distribution of binding in rat brain (histamine H3 receptor): corresponded with known histamine H3 receptor distribution
